From patent publication US8227422B2, “Peptides and compounds that bind to a receptor” (Glaxosmithkline LLC, priority 1996, dated 2012) come the findings set out here.

One assay has as its target T1, TPO-R (Homo sapiens, UniProt P40238).
T1 construct: made in house
T1 sequence (P40238 26-491 limits assumed): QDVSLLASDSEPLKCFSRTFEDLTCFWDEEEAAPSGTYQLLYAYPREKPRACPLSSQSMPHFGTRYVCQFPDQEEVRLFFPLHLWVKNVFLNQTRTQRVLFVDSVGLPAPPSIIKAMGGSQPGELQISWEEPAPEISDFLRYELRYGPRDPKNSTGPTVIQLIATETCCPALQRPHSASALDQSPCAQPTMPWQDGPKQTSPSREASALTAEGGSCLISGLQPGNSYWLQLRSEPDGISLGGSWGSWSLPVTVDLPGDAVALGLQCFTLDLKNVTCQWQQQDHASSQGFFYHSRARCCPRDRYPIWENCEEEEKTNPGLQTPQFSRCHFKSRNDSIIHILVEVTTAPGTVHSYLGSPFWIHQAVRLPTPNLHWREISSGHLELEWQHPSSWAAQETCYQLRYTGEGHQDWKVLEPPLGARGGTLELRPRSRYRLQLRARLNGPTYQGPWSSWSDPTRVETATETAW
Description: Competition binding assay (equilibrium binding ELISA, MBP-TPO156 tracer) on immobilized TPO-R. To be noted: Table 5; read-out: IC50. A general note: An ELISA detects its analyte on a solid surface through an enzyme-linked reagent.

For assay [1], the target named is T2, human TPO-R (transfected Ba/F3 cells) (Homo sapiens, UniProt P40238).
T2 construct: Murine IL-3 dependent Ba/F3 cells were transfected with full length human TPO-R; expressed in transfected cells; host or cells: murine Ba/F3 cells
T2 sequence (P40238 26-635): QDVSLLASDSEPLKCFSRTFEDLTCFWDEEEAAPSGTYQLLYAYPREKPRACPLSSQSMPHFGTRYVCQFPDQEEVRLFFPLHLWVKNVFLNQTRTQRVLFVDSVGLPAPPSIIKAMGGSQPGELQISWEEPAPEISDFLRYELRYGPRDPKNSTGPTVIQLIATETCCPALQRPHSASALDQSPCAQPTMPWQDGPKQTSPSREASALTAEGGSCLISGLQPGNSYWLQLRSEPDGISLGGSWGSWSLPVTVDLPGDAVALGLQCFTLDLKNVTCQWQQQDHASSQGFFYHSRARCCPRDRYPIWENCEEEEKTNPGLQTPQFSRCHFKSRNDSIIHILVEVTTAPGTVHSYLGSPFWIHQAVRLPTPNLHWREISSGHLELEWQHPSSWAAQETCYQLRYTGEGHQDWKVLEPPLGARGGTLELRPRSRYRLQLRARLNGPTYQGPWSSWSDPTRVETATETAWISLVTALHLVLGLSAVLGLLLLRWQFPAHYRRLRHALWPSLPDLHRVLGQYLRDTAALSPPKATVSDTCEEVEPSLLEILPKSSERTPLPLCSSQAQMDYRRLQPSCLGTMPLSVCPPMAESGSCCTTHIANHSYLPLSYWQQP
Description: Thrombopoietin dependent cell proliferation assay (MTT), TPO-R transfected Ba/F3 cells. The assay is classed as cell-based. As to conditions: Table 5, substitutions in cyclized compound; read-out: EC50 (nM) Cell Prolif.
Description: Bioactivity of the peptides can be measured using a thrombopoietin dependent cell proliferation assay. Murine IL-3 dependent Ba/F3 cells were transfected with full length human TPO-R. In the absence of IL-3 (WEHI-3 conditioned media), these cells are dependent on TPO for proliferation.
The cells were grown in complete RPMI-10 media, containing 10% WEHI-3 conditioned media, then washed twice in PBS, resuspended in media which lacked WEHI-3 conditioned media, and added to wells containing dilutions of peptide or TPO at 2×10^4 cells/well. The cells were incubated for 48 hours at 37° C. in a humidified 5% CO2 atmosphere and metabolic activity was assayed by the reduction of MTT to formazan, with absorbance at 570 nm measured on an ELISA plate reader.

The target of the next assay is T3, TPO receptor (Homo sapiens, UniProt P40238).
T3 sequence (P40238 26-635): T2 sequence (P40238 26-635)
Description: Microphysiometer assay: rate of acidification of extracellular medium on TPO receptor stimulation. The assay is classed as cell-based. To be noted: Table 5, value in parentheses; read-out: EC50 (nM), microphysiometer results given in parentheses.

Assay [2] concerns marrow cells of Balb/C mice (mouse receptor). Description: Mouse marrow cells in liquid culture, AChE-positive megakaryocyte outgrowth. In kind it is cell-based. As to conditions: for Response (AChE-positive megakaryocytes): 7 days liquid culture. How it is done: To assess the feasibility of mice as a convenient test species, several in vitro experiments, designed to measure the activity of the test compounds on the mouse receptor, have been done. First, marrow cells, harvested from the femurs of 8 to 9 week one Balb/C mice, were incubated for 7 days in liquid culture with either rhuTPO or various concentrations of the test peptides. At the end of the incubation period, the cultures were concentrated by Cytospin, stained for acetylcholinesterase (AChE, a diagnostic of mouse megakaryocytes), and counted by microscopic analysis. One (X) nM rhuTPO gave rise to the outgrowth of very large (>40 um) non-adherent cells that stain for AChE. These cells appear to be mature megakaryocytes. From an initial seeding of 10^6 total marrow cells/ml (in 50 ml cultures) an estimated 1 to 2×10^6 megakaryocytes developed. This responce to TPO was designated as “maximal”. Control cultures containing no added growth factors produced very few AChE-positive cells. […] This finding was the first evidence that this peptide family is active on the murine receptor. In a second experiment, marrow cells were harvested and cultured in semi-solid medium (methylcellulose) containing either no factors, 1 nM rhuTPO, or 10 uM Peptide A. After 7 days in culture, colonies of large cell (presumed to be megakaryocytes) were counted and grouped into small colonies (3-5 cells) or large colonies (greater than 6 cells). TPO and the test peptides both produced substantially more colonies of both sized than did the negative control cultures.

Assay [3] concerns marrow cells (Mk precursor cell population). The experiment in a line: Mouse marrow cells in semi-solid medium (methylcellulose), colonies of large cells. To be noted: 1 nM TPO; 7 days in methylcellulose; replicates #1-1 to #2-2. In kind it is cell-based. How it is done:
To assess the feasibility of mice as a convenient test species, several in vitro experiments, designed to measure the activity of the test compounds on the mouse receptor, have been done. First, marrow cells, harvested from the femurs of 8 to 9 week one Balb/C mice, were incubated for 7 days in liquid culture with either rhuTPO or various concentrations of the test peptides. At the end of the incubation period, the cultures were concentrated by Cytospin, stained for acetylcholinesterase (AChE, a diagnostic of mouse megakaryocytes), and counted by microscopic analysis. One (X) nM rhuTPO gave rise to the outgrowth of very large (>40 um) non-adherent cells that stain for AChE. These cells appear to be mature megakaryocytes. From an initial seeding of 10^6 total marrow cells/ml (in 50 ml cultures) an estimated 1 to 2×10^6 megakaryocytes developed. This responce to TPO was designated as “maximal”. Control cultures containing no added growth factors produced very few AChE-positive cells. […] In a second experiment, marrow cells were harvested and cultured in semi-solid medium (methylcellulose) containing either no factors, 1 nM rhuTPO, or 10 uM Peptide A. After 7 days in culture, colonies of large cell (presumed to be megakaryocytes) were counted and grouped into small colonies (3-5 cells) or large colonies (greater than 6 cells). […]

Several values for one entry are separate records, joined by “and”; a condition that tells them apart may be missing. Equal entries are not always repeated. Where a SMILES comes first, the peptide text is derived from it.

Description for TPO receptor: In this example cyclized compounds were subjected to three assays. […] Finally, a microphysiometer (Molecular Devices Corp.) assay was performed. […] The ranges for EC50 are symbolically indicated as for IC50 described above.

On to `CC[C@H](C)[C@@H]1NC(=O)[C@H](Cc2c[nH]c3ccccc23)NC(=O)[C@H](CCC(=O)O)NC(=O)[C@H](CCCNC(=N)N)NC(=O)[C@H](CC(C)C)NC(=O)[C@H]([C@@H](C)O)NC(=O)[C@@H]2CCCN2C(=O)CNC(=O)[C@H](CC(=O)O)NC(=O)[C@H](C)NC(=O)[C@@H](N)CSSC[C@@H](C(N)=O)NC(=O)[C@H](CC2CCCCC2)NC(=O)[C@H](CO)NC1=O` [F-CHA] (HELM PEPTIDE1{C.A.D.G.P.T.L.R.E.W.I.S.[Cha].C.[am]}$PEPTIDE1,PEPTIDE1,1:R3-14:R3$$$V2.0; N-terminus and C-terminus assumed), for which, on TPO-R, the half-maximal inhibitory concentration (IC50) was no more than 500 nM. Moreover, the 50% effective concentration (EC50) (in assay [1]; on TPO receptor) was less than 500 nM throughout.

“S.A. alone: streptavidin alone [reference compound]”: the “Response (AChE-positive megakaryocytes)” value in assay [2] (1000 nM (putative 1:4 complex), maximal = 25–30% AChE staining cells) is recorded as “none”.

Take “TPO: recombinant human TPO (thrombopoietin)”: the “Response (AChE-positive megakaryocytes)” value in assay [2] (1 nM) is given as ““maximal””. Moreover, the megakaryocytes developed in assay [2] (One (X) nM rhuTPO, initial seeding 10^6 total marrow cells/ml (50 ml cultures), 7 days) is on record as 1 to 2×10^6 megakaryocytes. In assay [3], the “colonies of 3–5 large cells” value is 15 and 12 and 16 and 13; the “colonies of 6–12 large cells” value is 6 and 1 and 8 and 3.

In general, IC50 refers to the concentration that inhibits the measured activity by half. Broadly, the EC50 is the concentration at which the effect is half-maximal.
